Experimental data published in patent US20140045873A1, “NOVEL MICROBIOCIDES” (SYNGENTA PARTICIPATIONS AG, priority 2010, published 2014).
Read-outs that look alike come from different tables or passages of the source.

Experiments:
[1] = test system: Mycosphaerella arachidis (Cercospora arachidicola); assay: Mycosphaerella arachidis (Cercospora arachidicola) / liquid culture (early leaf spot); type: cell-based; conditions: read-out: control of Mycosphaerella arachidis (inhibition of growth, photometric)
[2] = test system: Phaeosphaeria nodorum (Septoria nodorum); conditions: Parastagonospora nodorum, in Triticum aestivum, foliar, read-out: control of Phaeosphaeria nodorum (percent disease control compared to untreated)
[3] = test system: Mycosphaerella graminicola (Septoria tritici); assay: Mycosphaerella graminicola (Septoria tritici) / liquid culture (Septoria blotch); type: cell-based; conditions: Zymoseptoria tritici, read-out: control of Mycosphaerella graminicola (inhibition of growth, photometric)
[4] = test system: Botryotinia fuckeliana (Botrytis cinerea); assay: Botryotinia fuckeliana (Botrytis cinerea) / liquid culture (gray mould); type: cell-based; conditions: Vogels broth, 24° C., 3-4 days after application, read-out: control of Botryotinia fuckeliana (inhibition of growth, photometric)
Source text: Botryotinia Fuckeliana (Botrytis cinerea)/Liquid Culture (Gray Mould): Conidia of the fungus from cryogenic storage were directly mixed into nutrient broth (Vogels broth). […].45

Pyrenophora teres = conditions: in Hordeum vulgare, foliar, read-out: control of Pyrenophora teres (disease control compared to untreated)
[5] = test system: Thanatephorus cucumeris (Rhizoctonia solani); conditions: read-out: control of Thanatephorus cucumeris (inhibition of growth, photometric)
[6] = test system: Puccinia recondita f. sp. tritici; conditions: in Triticum aestivum, foliar, read-out: control of Puccinia recondita f. sp. tritici (percent disease control compared to untreated)
[7] = test system: Puccinia recondita f. sp. tritici; conditions: in Triticum aestivum, foliar, read-out: control of Puccinia recondita f. sp. tritici (percent disease control compared to untreated); remark: listed apart in the source
Gaeumannomyces graminis = Gaeumannomyces graminis / liquid culture (take-all of cereals); type: cell-based; conditions: read-out: control of Gaeumannomyces graminis (inhibition of growth, photometric)
[8] = test system: Glomerella lagenarium (Colletotrichum lagenarium); assay: Glomerella lagenarium (Colletotrichum lagenarium) / liquid culture (anthracnose); type: cell-based; conditions: Colletotrichum orbiculare, read-out: control of Glomerella lagenarium (inhibition of growth, photometric)
[9] = test system: Monographella nivalis (Microdochium nivale); assay: Monographella nivalis (Microdochium nivale) / liquid culture (foot rot cereals); type: cell-based; conditions: PDB, 24° C., 4-5 days after application, read-out: control of Monographella nivalis (inhibition of growth, photometric)
[10] = 200 ppm, liquid culture, PDB, 24° C., 4-5 days after application
[11] = 200 ppm, liquid culture, PDB, 24° C., 3-4 days after application

CCOc1cc(CC)nc(-c2cccc(CCCO/N=C(\C)c3cccc(C)n3)n2)c1C [P.34]
≥ 80%: inhibition at 200 ppm [1, 10] | pest or weed control at 200 ppm [2] | inhibition at 200 ppm [3, 10] | inhibition at 200 ppm [4] | pest or weed control at 200 ppm (Pyrenophora teres) | inhibition at 200 ppm [5] | pest or weed control at 200 ppm [6] | pest or weed control at 200 ppm [7]

CCON=C(C)c1ccc(-c2cccc(CCCO/N=C(\C)c3cccc(C)n3)n2)nc1C [P.23]
≥ 80%: inhibition at 200 ppm [1, 10] | pest or weed control at 200 ppm [2] | inhibition at 200 ppm (Gaeumannomyces graminis; [10]) | inhibition at 200 ppm [3, 10] | inhibition at 200 ppm [4] | pest or weed control at 200 ppm (Pyrenophora teres) | inhibition at 200 ppm [8, 11] | pest or weed control at 200 ppm [6] | pest or weed control at 200 ppm [7]

CSc1nccc(-c2cccc(CCCO/N=C(\C)c3cccc(C)n3)n2)n1 [P.09]
≥ 80%: inhibition at 200 ppm [1, 10] | pest or weed control at 200 ppm [2] | inhibition at 200 ppm (Gaeumannomyces graminis; [10]) | inhibition at 200 ppm [3, 10] | inhibition at 200 ppm [4] | pest or weed control at 200 ppm (Pyrenophora teres) | pest or weed control at 200 ppm [6]

CCc1cc(Br)c(C)c(-c2cccc(CCCO/N=C(\C)c3cccc(C)n3)n2)n1 [P.41]
≥ 80%: inhibition at 200 ppm [1, 10] | pest or weed control at 200 ppm [2] | inhibition at 200 ppm [3, 10] | inhibition at 200 ppm [4] | inhibition at 200 ppm [9] | inhibition at 200 ppm [8, 11]

C/C(=N\OCCCc1cccc(-c2ncccn2)n1)c1cccc(C)n1 [P.04]
≥ 80%: inhibition at 200 ppm [1, 10] | pest or weed control at 200 ppm [2] | inhibition at 200 ppm [4] | inhibition at 200 ppm [5] | pest or weed control at 200 ppm [6] | pest or weed control at 200 ppm [7]

CCc1cc(OC(C)C)c(C)c(-c2cccc(CCCO/N=C(\C)c3cccc(C)n3)n2)n1 [P.36]
≥ 80%: inhibition at 200 ppm [1, 10] | pest or weed control at 200 ppm [2] | inhibition at 200 ppm [3, 10] | inhibition at 200 ppm [4] | pest or weed control at 200 ppm (Pyrenophora teres) | inhibition at 200 ppm [8, 11] | inhibition at 200 ppm [5] | pest or weed control at 200 ppm [6] | pest or weed control at 200 ppm [7]

C/C(=N\OCCCc1cccc(-c2cc(O)cc(C)n2)n1)c1cccc(C)n1 [P.14, 1-(6-methyl-pyridin-2-yl)-ethanone-O-[3-(4′-hydroxy-6′-methyl-[2,2′]bipyridinyl-6-yl)-propyl]-oxime]
≥ 80%: inhibition at 200 ppm [1, 10] | inhibition at 200 ppm (Gaeumannomyces graminis; [10]) | inhibition at 200 ppm [3, 10]

C/C(=N\OCCCc1cccc(-c2ccnc(-c3ccccc3)n2)n1)c1cccc(C)n1 [P.08]
≥ 80%: inhibition at 200 ppm [1, 10] | inhibition at 200 ppm (Gaeumannomyces graminis; [10]) | inhibition at 200 ppm [3, 10] | inhibition at 200 ppm [4]

CCc1cc(Cl)c(C)c(-c2cccc(CCCO/N=C(\C)c3cccc(C)n3)n2)n1 [P.39]
≥ 80%: inhibition at 200 ppm [1, 10] | pest or weed control at 200 ppm [2] | inhibition at 200 ppm [3, 10] | inhibition at 200 ppm [4] | inhibition at 200 ppm [9] | inhibition at 200 ppm [8, 11] | inhibition at 200 ppm [5]

CC(=O)c1ccc(-c2cccc(CCCO/N=C(\C)c3cccc(C)n3)n2)nc1C [P.20]
≥ 80%: inhibition at 200 ppm [1, 10] | pest or weed control at 200 ppm [2] | inhibition at 200 ppm (Gaeumannomyces graminis; [10]) | pest or weed control at 200 ppm (Pyrenophora teres)

C/C(=N\OCCCc1cccc(-c2ccnc(Cc3ccccc3)n2)n1)c1cccc(C)n1 [P.10]
≥ 80%: inhibition at 200 ppm [1, 10] | inhibition at 200 ppm (Gaeumannomyces graminis; [10]) | inhibition at 200 ppm [3, 10] | inhibition at 200 ppm [4] | pest or weed control at 200 ppm (Pyrenophora teres)

C/C(=N\OCCCc1cccc(-c2ccnc(C)n2)n1)c1cccc(C)n1 [P.03]
≥ 80%: inhibition at 200 ppm [1, 10] | pest or weed control at 200 ppm [2] | inhibition at 200 ppm (Gaeumannomyces graminis; [10]) | inhibition at 200 ppm [3, 10] | inhibition at 200 ppm [4] | pest or weed control at 200 ppm (Pyrenophora teres) | inhibition at 200 ppm [5] | pest or weed control at 200 ppm [6]

C#CCOc1cc(CC)nc(-c2cccc(CCCO/N=C(\C)c3cccc(C)n3)n2)c1C [P.38]
≥ 80%: inhibition at 200 ppm [1, 10] | pest or weed control at 200 ppm [2] | inhibition at 200 ppm [3, 10] | inhibition at 200 ppm [4] | pest or weed control at 200 ppm (Pyrenophora teres) | inhibition at 200 ppm [8, 11] | inhibition at 200 ppm [5] | pest or weed control at 200 ppm [6] | pest or weed control at 200 ppm [7]

C=CCOc1cc(CC)nc(-c2cccc(CCCO/N=C(\C)c3cccc(C)n3)n2)c1C [P.37]
≥ 80%: inhibition at 200 ppm [1, 10] | pest or weed control at 200 ppm [2] | inhibition at 200 ppm [3, 10] | inhibition at 200 ppm [4] | pest or weed control at 200 ppm (Pyrenophora teres) | inhibition at 200 ppm [8, 11] | inhibition at 200 ppm [5] | pest or weed control at 200 ppm [6] | pest or weed control at 200 ppm [7]

C/C(=N\OCCCc1cccc(-c2ccncn2)n1)c1cccc(C)n1 [P.06]
≥ 80%: inhibition at 200 ppm (Gaeumannomyces graminis; [10]) | inhibition at 200 ppm [3, 10]

C/C(=N\OCCCc1cccc(-c2nccc(C)n2)n1)c1cccc(C)n1 [P.02]
≥ 80%: inhibition at 200 ppm [1] | pest or weed control at 200 ppm [2] | inhibition at 200 ppm (Gaeumannomyces graminis) | inhibition at 200 ppm [3] | pest or weed control at 200 ppm (Pyrenophora teres) | inhibition at 200 ppm [8] | inhibition at 200 ppm [5] | pest or weed control at 200 ppm [6] | pest or weed control at 200 ppm [7]

CCc1cc(OC)c(C)c(-c2cccc(CCCO/N=C(\C)c3cccc(C)n3)n2)n1 [P.33]
≥ 80%: inhibition at 200 ppm [1, 10] | pest or weed control at 200 ppm [2] | inhibition at 200 ppm [3, 10] | inhibition at 200 ppm [4] | pest or weed control at 200 ppm (Pyrenophora teres) | inhibition at 200 ppm [5] | pest or weed control at 200 ppm [6] | pest or weed control at 200 ppm [7]

CCCOc1cc(CC)nc(-c2cccc(CCCO/N=C(\C)c3cccc(C)n3)n2)c1C [P.35]
≥ 80%: inhibition at 200 ppm [1, 10] | pest or weed control at 200 ppm [2] | inhibition at 200 ppm [3, 10] | inhibition at 200 ppm [4] | pest or weed control at 200 ppm (Pyrenophora teres) | inhibition at 200 ppm [8, 11] | inhibition at 200 ppm [5] | pest or weed control at 200 ppm [6] | pest or weed control at 200 ppm [7]
